Measured values published in paper PMC7969469 (Cancer research, 2021).

Tested on: invadopodia formation
Assay: Invadopodia formation with ROCK inhibitor
Format: cell-based
Settings: ROCK inhibition, Supplementary Figure S6C

Compound: O=S(=O)(c1cccc2cnccc12)N1CCCNCC1 [Fasudil]
- effect on invadopodia formation: affected neither
